Reference: publication PMC8279492, “Quinolinonyl Non-Diketo Acid Derivatives as Inhibitors of HIV-1 Ribonuclease H and Polymerase Functions of Reverse Transcriptase” (Journal of Medicinal Chemistry, 2021)
Read-outs that look alike come from different tables or passages of the source.

Assays:
[1] = target: T1, HIV-1 RT-associated RNase H activity (Human immunodeficiency virus type 1 group M subtype B, UniProt P03366); experiment: biochemical; format: biochemical
T1 construct: His-tagged p66/p51 HIV-1 RT group M subtype B; His; made in house; host or cells: Escherichia coli M15
Description: (11) and β-thujaplicinol (BTP) used as positive controls.
His-tagged p66/p51 HIV-1 RT group M subtype B coded in a p6HRT-prot plasmid was expressed in the Escherichia coli strain M15.[65] Heterodimeric RTs were expressed essentially and purified as described.[66]
The HIV-1 RT-associated RNase H activity was measured as described.[68] Briefly, the reaction was carried out in a black 96-well plate in a total volume of 100 μL. […] Experiments were performed in duplicate and replicated at least two times. Data were analyzed as described.[36]

HIV-1 IN = HIV-1 IN (Human immunodeficiency virus type 1 group M subtype B, UniProt P12497); experiment: biochemical
Description: His-tagged NL4-3 IN was expressed from a pET15b plasmid in the E. coli BL21 pLys strain. Recombinant protein was purified as previously described[67] following a batch preparation on Ni-NTA beads (Qiagen, Paris, France).
Both oligonucleotides were purchased from Integrated DNA Technologies, Inc. (Coralville, IA), and the gel was purified in-house. ST reactions were performed by adding molecules or an equivalent volume of 100% dimethyl sulfoxide (DMSO, used as the drug solvent) to a mixture of 20 nM duplex DNA substrate and 400 nM IN in 50 mM MOPS pH 7.2, 7.5 mM MgCl2, and 14 mM 2-mercaptoethanol. Mixtures were incubated at 37 °C for 2 h, and the reaction was quenched by addition of an equal volume of loading buffer [formamide containing 1% sodium dodecyl sulfate (SDS), 0.25% bromophenol blue, and xylene cyanol]. […] Dried gels were visualized using a FLA5000 (Fuji Photo Film, Tokyo, Japan). Densitometric analyses were performed using ImageQuant 5.1 software from GE Healthcare.

HIV-1 replication = HIV-1 replication in HeLa-CD4-LTR-β-gal reporter cells; format: cell-based; conditions: read-out: antiviral activity EC50
Description: (§1) HIV-1 replication was monitored using HeLa-CD4-LTR-β-gal reporter cells as previously described.[69] Briefly, β-galactosidase activity was monitored 24 h post infection using a replication-competent HIV produced in-house (H9-laï coculture) and a serial dilution of molecules or an equivalent volume of DMSO. In parallel, compounds’ toxicity was determined at 24 h in the same cell line using CellTiter 96 AQueous One Solution Cell Proliferation Assay (Promega, France).

[2] = Compounds' toxicity, CellTiter 96 AQueous One Solution Cell Proliferation Assay; format: cell-based; conditions: human, HeLa-CD4-LTR-β-gal cells
Description: as §1

[3] = anti-RH activity (IC50 ± SD), HIV-1 RT-associated RNase H activity, dose-response curves, no preincubation
[4] = Human immunodeficiency virus 1, HeLa-CD4-LTR-β-gal cells, 24 h post infection
[5] = CC50 (cytotoxic concentration 50%), 24 h
[6] = HIV-1 RT-associated RNase H activity, dose-response curves, no preincubation
[7] = Human immunodeficiency virus 1, 24 h

Row | Compound | IC50 [1, 3] [µM] | CC50 at 24 h [2, 5] [µM] | also measured
1 | O=C(O)c1cn(Cc2ccc(F)cc2)c2ccccc2c1=O [4a, 1-(4-Fluorobenzyl)-4-oxo-1,4-dihydroquinoline-3-carboxylic Acid] | > 100 | – | –
2 | N#Cc1ccc2c(c1)c(=O)c(C(=O)O)cn2Cc1ccc(F)cc1 [4b, 6-Cyano-1-(4-fluorobenzyl)-4-oxo-1,4-dihydroquinoline-3-carboxylic Acid] | > 100 | – | –
3 | O=C(O)c1cn(Cc2ccc(F)cc2)c2ccc(C(F)(F)F)cc2c1=O [4c, 1-(4-Fluorobenzyl)-4-oxo-6-(trifluoromethyl)-1,4-dihydroquinoline-3-carboxylic Acid] | > 100 | – | –
4 | CC(=O)c1ccc2c(c1)c(=O)c(C(=O)O)cn2Cc1ccc(F)cc1 [4d, 6-Acetyl-1-(4-fluorobenzyl)-4-oxo-1,4-dihydroquinoline-3-carboxylic Acid] | 16.3 ± 1.42 | > 200 | IC50 (HIV-1 IN): > 100 µM; EC50 (HIV-1 replication; [4]): > 50 µM; CC50 at 24 h ([2]; supplement CSV, read-out: CC50): > 50 µM
5 | O=C(O)c1cn(Cc2ccc(F)cc2)c2ccc([N+](=O)[O-])cc2c1=O [4e, 1-(4-Fluorobenzyl)-6-nitro-4-oxo-1,4-dihydroquinoline-3-carboxylic Acid] | 56 ± 4 | – | –
6 | CS(=O)(=O)c1ccc2c(c1)c(=O)c(C(=O)O)cn2Cc1ccc(F)cc1 [4f, 1-(4-Fluorobenzyl)-6-(methylsulfonyl)-4-oxo-1,4-dihydroquinoline-3-carboxylic Acid] | 100 | – | –
7 | O=C(O)c1cn(Cc2ccc(F)cc2)c2ccc(O)cc2c1=O [4g, 1-(4-Fluorobenzyl)-6-hydroxy-4-oxo-1,4-dihydroquinoline-3-carboxylic Acid] | 74 ± 9 | – | –
8 | COc1ccc2c(c1)c(=O)c(C(=O)O)cn2Cc1ccc(F)cc1 [4h, 1-(4-Fluorobenzyl)-6-methoxy-4-oxo-1,4-dihydroquinoline-3-carboxylic Acid] | > 100 | – | anti-RH activity (IC50 ± SD) [1, 6]: no activity
9 | O=C(O)c1cn(Cc2ccc(F)cc2)c2ccc(Oc3ccccc3)cc2c1=O [4i, 1-(4-Fluorobenzyl)-4-oxo-6-phenoxy-1,4-dihydroquinoline-3-carboxylic Acid] | 32 ± 11 | – | –
10 | CN(C)CCCOc1ccc2c(c1)c(=O)c(C(=O)O)cn2Cc1ccc(F)cc1 [4j, 6-(3-(Dimethylamino)propoxy)-1-(4-fluorobenzyl)-4-oxo-1,4-dihydroquinoline-3-carboxylic Acid] | 15.4 ± 3 | – | –
11 | O=C(O)c1cn(Cc2ccc(F)cc2)c2ccc(OCc3ccc4ccccc4c3)cc2c1=O [4p, 1-(4-Fluorobenzyl)-6-(naphthalen-2-ylmethoxy)-4-oxo-1,4-dihydroquinoline-3-carboxylic Acid] | 30.3 ± 1.7 | > 200 | IC50 ([1]; RH IC50 (uM), supplement CSV): 30.3 ± 1.69 µM; EC50 (HIV-1 replication; [4]): > 50 µM; CC50 at 24 h ([2]; supplement CSV, read-out: CC50): > 50 µM
12 | O=C(O)c1cn(Cc2ccc(F)cc2)c2ccc(OCCCCc3ccccc3)cc2c1=O [4r, 1-(4-Fluorobenzyl)-4-oxo-6-(4-phenylbutoxy)-1,4-dihydroquinoline-3-carboxylic Acid] | 8.27 ± 0.45 | > 200 | EC50 (HIV-1 replication; [4]): > 50 µM; CC50 at 24 h ([2]; supplement CSV, read-out: CC50): > 50 µM
13 | CCOC(=O)c1cn(Cc2ccc(F)cc2)c2ccc(C#N)cc2c1=O [5b, Ethyl 6-Cyano-1-(4-fluorobenzyl)-4-oxo-1,4-dihydroquinoline-3-carboxylate] | > 100 | – | –
14 | CCOC(=O)c1cn(Cc2ccc(F)cc2)c2ccc(C(F)(F)F)cc2c1=O [5c, Ethyl 1-(4-Fluorobenzyl)-4-oxo-6-(trifluoromethyl)-1,4-dihydroquinoline-3-carboxylate] | 59 ± 5 | – | –
15 | CCOC(=O)c1cn(Cc2ccc(F)cc2)c2ccc(C(C)=O)cc2c1=O [5d, Ethyl 6-Acetyl-1-(4-fluorobenzyl)-4-oxo-1,4-dihydroquinoline-3-carboxylate] | 11 ± 1 | > 200 | IC50 (HIV-1 IN): > 100 µM; EC50 (HIV-1 replication; [4]): > 50 µM; CC50 at 24 h ([2]; supplement CSV, read-out: CC50): > 50 µM
16 | CCOC(=O)c1cn(Cc2ccc(F)cc2)c2ccc([N+](=O)[O-])cc2c1=O [5e, Ethyl 1-(4-Fluorobenzyl)-6-nitro-4-oxo-1,4-dihydroquinoline-3-carboxylate] | 47.8 ± 10 | – | –

Row | Compound | IC50 [1, 3] [µM] | CC50 at 24 h [2, 5] [µM] | also measured
17 | CCOC(=O)c1cn(Cc2ccc(F)cc2)c2ccc(S(C)(=O)=O)cc2c1=O [5f, Ethyl 1-(4-Fluorobenzyl)-6-(methylsulfonyl)-4-oxo-1,4-dihydroquinoline-3-carboxylate] | > 100 | – | –
18 | CCOC(=O)c1cn(Cc2ccc(F)cc2)c2ccc(O)cc2c1=O [5g, Ethyl 1-(4-Fluorobenzyl)-6-hydroxy-4-oxo-1,4-dihydroquinoline-3-carboxylate] | > 100 | – | –
19 | CCOC(=O)c1cn(Cc2ccc(F)cc2)c2ccc(OC)cc2c1=O [5h, Ethyl 1-(4-Fluorobenzyl)-6-methoxy-4-oxo-1,4-dihydroquinoline-3-carboxylate] | > 100 | – | anti-RH activity (IC50 ± SD) [1, 6]: no activity
20 | CCOC(=O)c1cn(Cc2ccc(F)cc2)c2ccc(Oc3ccccc3)cc2c1=O [5i, Ethyl 1-(4-Fluorobenzyl)-4-oxo-6-phenoxy-1,4-dihydroquinoline-3-carboxylate] | 45.5 ± 1.5 | – | –
21 | CCOC(=O)c1cn(Cc2ccc(F)cc2)c2ccc(OCCCN(C)C)cc2c1=O [5j, Ethyl 6-(3-(Dimethylamino)propoxy)-1-(4-fluorobenzyl)-4-oxo-1,4-dihydroquinoline-3-carboxylate] | > 100 | – | –
22 | CCOC(=O)c1cn(Cc2ccc(F)cc2)c2ccc(/C=C/C(=O)c3ccccc3)cc2c1=O [5k, (E)-Ethyl 1-(4-Fluorobenzyl)-4-oxo-6-(3-oxo-3-phenylprop-1-en-1-yl)-1,4-dihydroquinoline-3-carboxylate] | 15.3 ± 1.6 | > 100 | EC50 (HIV-1 replication; [4]): > 50 µM
23 | CCOC(=O)c1cn(Cc2ccc(F)cc2)c2ccc(OCc3ccccc3)cc2c1=O [5l, Ethyl 6-(Benzyloxy)-1-(4-fluorobenzyl)-4-oxo-1,4-dihydroquinoline-3-carboxylate] | 8 ± 1.6 | > 100 | EC50 (HIV-1 replication; [4]): > 100 µM
24 | CCOC(=O)c1cn(Cc2ccc(F)cc2)c2ccc(OCc3cccc4ccccc34)cc2c1=O [5o, Ethyl 1-(4-Fluorobenzyl)-6-(naphthalen-1-ylmethoxy)-4-oxo-1,4-dihydroquinoline-3-carboxylate] | 1.49 ± 0.33 | > 100 | EC50 (HIV-1 replication; [7]): > 100 µM
25 | CCOC(=O)c1cn(Cc2ccc(F)cc2)c2ccc(OCc3ccc4ccccc4c3)cc2c1=O [5p, Ethyl 1-(4-Fluorobenzyl)-6-(naphthalen-2-ylmethoxy)-4-oxo-1,4-dihydroquinoline-3-carboxylate] | 19.6 | 73 ± 24 | EC50 (HIV-1 replication; [4]): > 50 µM; CC50 at 24 h ([2]; supplement CSV, read-out: CC50): > 50 µM
26 | CCOC(=O)c1cn(Cc2ccc(F)cc2)c2ccc(OCc3ccc4c(c3)OCO4)cc2c1=O [5q, Ethyl 6-(Benzo[d][1,3]dioxol-5-ylmethoxy)-1-(4-fluorobenzyl)-4-oxo-1,4-dihydroquinoline-3-carboxylate] | 55.3 ± 1.7 | – | –
27 | CCOC(=O)c1cn(Cc2ccc(F)cc2)c2ccc(OCCCCc3ccccc3)cc2c1=O [5r, Ethyl 1-(4-Fluorobenzyl)-4-oxo-6-(4-phenylbutoxy)-1,4-dihydroquinoline-3-carboxylate] | 28.4 ± 4.3 | > 200 | IC50 ([1]; RH IC50 (uM), supplement CSV): 28.4 ± 4.3 µM; EC50 (HIV-1 replication; [4]): > 16 µM; CC50 at 24 h ([2]; supplement CSV, read-out: CC50): > 50 µM
28 | CCOC(=O)c1cn(Cc2ccc(F)cc2)c2ccc(OCc3ccc(-c4ccccc4)cc3)cc2c1=O [5s, Ethyl 6-([1,1′-Biphenyl]-4-ylmethoxy)-1-(4-fluorobenzyl)-4-oxo-1,4-dihydroquinoline-3-carboxylate] | > 100 | – | –
29 | CCOC(=O)c1cn(Cc2ccc(F)cc2)c2ccc(OCc3ccc(OCc4ccccc4)cc3)cc2c1=O [5t, Ethyl 6-((4-(Benzyloxy)benzyl)oxy)-1-(4-fluorobenzyl)-4-oxo-1,4-dihydroquinoline-3-carboxylate] | > 100 | – | –
30 | CC(C)c1ccc(O)c(=O)c(O)c1 [BTP, β-thujaplicinol, reference compound] | 0.19 ± 0.03 | – | –
31 | CCOC(=O)/C=C/C(=O)/C=C/c1cccn1Cc1ccccc1Cl [compound 11, reference compound] | 7.5 ± 1.32 | 68 ± 10 | IC50 (HIV-1 IN): > 100 µM; EC50 (HIV-1 replication; [7]): 2.9 ± 0.5 µM
